Test results: patent EP0334956A1, “HEMOLYSIS INHIBITOR AND MEDICAL RESIN COMPOSITION, MEDICAL IMPLEMENT, AND BLOOD-PRESERVING FLUID CONTAINING THE SAME” (KAO CORPORATION, priority 1986, dated 1988)
Where two headings read alike, the source gives them in different places.

Assays:
[1] = test system: human concentrated red cells; assay: Hemolysis of stored CRC, reagent added as Tween 80/physiological saline emulsion; plasma hemoglobin by TMB method; type: cell-based; settings: final concentration 0.5 mM, emulsion, 4°C, 4 weeks
Description: Isopropyl isotridecyl maleate was added to a 2000ug/ml polyoxyethylene monooleate (reagent-grade product of Wako Junyaku K.K. marketed under trademark designation of "Tween 80")/physiological saline mixed solution in such an amount to be contained therein in a final concentration of 4mM. A 0.2ml aliquot of the resultant emulsion was added to a human concentrated red cells (hereinafter referred to as "CRC") adjusted in advance to a hematocrit value of about 70% so as to be contained therein in a final concentration indicated in Table 1. The resulting liquid was placed in a stoppered polypropylene tube and left standing at rest at 4°C for 4 weeks. At the end of this standing, it was tested for plasma hemoglobin concentration by the TMB method (Clin. Chem., 23, 749-(1977)).
An emulsion was prepared by following the procedure of Example 1, except that isopropyl decyl maleate was used in place of isopropyl-isotridecyl maleate. A CRC sample incorporating the emulsion was left standing and thereafter tested for plasma hemoglobin concentration.
Emulsions were prepared by following the procedure of Excample 1, except that di-2-ethylhexyl phthalate (Control 1) and diisopropyl maleate, a carboxylic ester compound deviating from the scope of the present invention (Control 2) were respectively used in place of isopropyl isotridecyl maleate. CRC samples severally incorporating the emulsions were left standing and, thereafter, tested for plasma hemoglobin concentration.
Glycerine-l-butyl-3-isostearyl ether was added to a 2000 ug/ml polyoxyethylene monooleate (regent-grade product of Wako Junyaku K.K. marketed under trademark designation of "Tween 80")/ physiological saline mixed solution so as to be contained therein in a final concentration of 4 mM. A 0.2ml aliquot of the resultant emulsion was added to CRC adjusted in advance to a hematocrit value of about 70% so as to be contained therein in a final concentration indicated in Table 3. The resultant liquid was placed in a stoppered polypropylene tube and left standing at 4°C for 4 weeks. Thereafter, it was tested for plasma hemoglobin concentration by following the procedure of Example 1.
An emulsion was prepared by following the procedure of Example 5, except that glycerine-1,3-dioctyl ether was used in place of glycerine- l-butyl-3-isostearyl ether. A CRC sample incorporating the resultant emulsion was left standing and, thereafter, tested for plasma hemoglobin concentration. Controls 7 and 8
Emulsions were prepared by following the procedure of Example 5, except that di-2-ethylhexyl phthalate (Control 7) and glycerine monooctyl ether, an ether compound deviating from the scope of the present invention, (Control 8) were respectively used in place of glycerine-l-butyl-3-isostearyl ether. CRC samples incorporating the emulsions were left standing and, thereafter, tested for plasma hemoglobin concentration.
Isopropyl isolaurate was dispersed in a 2000 ug/ml poloxyethylene monooleate (reagent-grade product of Wako Junyaku K.K. marketed under trademark designation of "Tween 80")/physiological saline mixed solution so as to be contained therein in a concentration of 4 mM. A 0.2-ml aliquot of the resultant emulsion was added to CRC adjusted in advance to a hematocrit value of about 70% so as to be contained therein in a final concentration indicated in Table 5. The resultant liquid was placed in a stoppered polypropylene tube and left standing at 4°C for 4 weeks. Thereafter, it was tested for plasma hemoglobin concentration by following the procedure of Example 1.
An emulsion was prepared by following the procedure of Example 9, except that 2-ethylhexyl isostearate was used in place of isopropyl isolaurate. A CRC sample incorporating the resultant emulsion was left standing and, thereafter, tested for plasma hemoglobin concentration.

[2] = test system: human platelet rich plasma; assay: Platelet aggregation in platelet rich plasma (Aggrecoder); type: cell-based; settings: for activity at 400 µM: Homo sapiens, Platelet, 2 h, 40 mM methanol solution added in 1/100, room temperature 2 hours, relative to blank
Description: A 40 mM methanol solution of isopropyl isotridecyl maleate (Example 13), a 40 mM methanol solution of glycerine-l-butyl-3-isostearyl ether (Example 14), a 40 mM methanol solution of isopropyl isolaurate (Example 15), a 40 mM methanol solution of di-2-ethylhexyl phthalate (Control 19) and methanol containing no added compound (Control 20) were severally added to a human platelet rich plasma (count of platelets about 300,000/mm ) in a fixed amount of 1/100, left standing at room temperature for 2 hours, and tested for platelet aggregation by the use of an instrument (product of Kyoto Daiichikagaku K.K. marketed under "Aggrecoder").
The percentage of transmittance of light through the solution of platelet rich plasma containing a given sample to the maximum transmittance of light through the same solution of platelet rich plasma not containing the sample (blank) was reported as the ratio of aggregation of the sample. As aggregation inducers, 5 µM ADP (adenosine diphosphoric acid) and 5 ug/ml collagen were used.

platelets = settings: Jouranl of Japan blood Transfusion Society, 28(3) 282 (1981); cited from earlier work
erythrocytes = settings: dissolving from flexible vinyl chloride resin container into preserved blood; Blood (1984); cited from earlier work
[3] = test system: human platelet rich plasma; type: cell-based
Description: To determine the effects brought about on platelets by the compounds used in Examples 16 through 18, the test for recovery of function of platelets was carried out by the following procedure.
First, a solution of 20,000 ppm of isopropyl decyl maleate in methanol (Example 19), a solution of 20,000 ppm of isopropyl tetradecyl maleate in methanol (Example 20), a solution of 20,000 ppm of isopropyl decyl itaconate in methanol (Example 21), a solution of 20,000 ppm of di-2-ethylhexyl maleate in methanol (Control 24), a solution of 20,000 ppm of di-2-ethylhexyl phthalate in methanol (Control 25), a solution of 20,000 ppm of dinormal decyl phthalate in methanol (Control 26), and methanol containing no added compound (blank) were prepared. These solutions were severally added to human […] in a fixed amount of 1/100. […]
To determine the effects exerted on platelets by 2-ethylhexyl isostearate used in Example 24 and 2-ethylhexyl 2-ethylhexanoate used in Example 25, a test for the recovery of function of platelets was carried out by following the procedure of Examples 19 through 21. […] The procedure of Examples 19 through 21 was repeated on these solutions to determined maximum capacity for aggregation with respect to 50µM ADP and 10µg/ml collagen in the presence of 0.2 mg of fibrinogen per ml.

For `CCCCC(CC)COC(=O)c1ccccc1C(=O)OCC(CC)CCCC` (stereo not shown) [Di-2-ethylhexyl phthalate, reference compound], the “Hemoglobin concentration in plasma” value ([1]; Table 1) was 41 Mg/ml, the “Hemoglobin concentration in plasma” value ([1]; Table 3) was 62 mg/mL and the “Hemoglobin concentration in plasma” value ([1]; Table 5) was 35 mg/mL. The activity at 400 µM ([2]; read-out: Ratio of platelet aggregation, aggregation inducer 5 µM ADP) was 92.1%, the activity at 400 µM ([2]; read-out: Ratio of platelet aggregation, aggregation inducer 5 µg/ml collagen) was 89.6% and the “effect on aggregating ability of platelets (in words)” value ([2]; summary of Table 7) was “produced a discernible effect of curbing the recovery of the aggregating ability of platelets”. For the same molecule, the “effect on aggregating ability of platelets (in words)” value (platelets) was “hinders the aggregating ability of platelets” and the “effect on hemolysis of erythrocytes (in words)” value (erythrocytes) was “serves to hinder the hemolysis of erythrocytes”.
With `CCCCC(CC)COC(=O)CCCCCCCCCCCCCCC(C)C` (stereo not shown) [2-ethylhexyl isostearate] the “action on recovery of ability of platelet aggregation (in words)” value [3] was “produced no discernible action to curb recovery of the ability of platelet aggregation”.
In the case of `CCCCC(CC)COC(=O)C(CC)CCCC` (stereo not shown) [2-ethylhexyl 2-ethylhexanoate], the “action on recovery of ability of platelet aggregation (in words)” value [3] is reported as “produced no discernible action to curb recovery of the ability of platelet aggregation”.
